In PMC5347165, “Killing of Staphylococcus aureus and Salmonella enteritidis and neutralization of lipopolysaccharide by 17-residue bovine lactoferricins: improved activity of Trp/Ala-containing molecules” (Scientific Reports, 2017):
In brackets after ≈: the same amount, converted by molar mass. Read-outs that look alike come from different tables or passages of the source. Ends that are not written are not given here.

Experiments:
LPS from E. coli O111:B4 = assay: LPS-induced endotoxemia model, survival; assay type: in vivo, mouse (C57BL/6); conditions: 15 mg/kg i.p. at 0.5, 8 and 24 h after LPS 30 mg/kg i.p.; followed 7 d; groups of eight mice
Method: Male C57BL/6 mice (8 weeks old, 22 ± 2 g) were intraperitoneally injected with 30 mg/kg of LPS (0.2 ml) from E. coli O111:B4 cells as previously described. Mice were intraperitoneally injected with Lfcin4 or Lfcin5 (10, 15 or 20 mg/kg of body weight in 0.2 ml) or colistin (15 mg/kg of body weight in 0.2 ml) at 0.5, 8 and 24 h after inoculation with LPS, respectively. Mice injected with LPS or saline only served as positive or mock-treated controls, respectively. Survival was recorded every 12 h and followed for up to 7 d.

S. aureus ATCC25923 [1] = assay type: cell-based, Staphylococcus aureus; conditions: ATCC25923, 18 h
Method: (§1) The MIC values of LfcinB17-33 derivatives against bacteria were determined by the microtiter broth dilution method. Briefly, 10 μl of serially diluted aliquots of peptides were added to each well of 96-well microtiter plates, followed by the addition of 90 μl exponential phase bacteria (10^5 CFU/ml) and incubated for 16‒18 h at 37 °C.

E. coli CVCC1515 = assay type: cell-based, Escherichia coli; conditions: CVCC1515, 18 h
Method: as §1

[2] = system: E. coli CICC21530 (serotype O157:H7); assay type: cell-based, Escherichia coli; conditions: microtiter broth dilution, 10^5 CFU/ml, 16‒18 h at 37 °C; representative of three independent experiments
Method: as §1

S. aureus ATCC25923 [3] = assay type: in vivo
Method: The thigh infection protocol was performed as previously described. Female BALB/c mice (6 weeks old, 22 ± 2 g) were rendered neutropenic (neutrophils, 100/mm^3) by intraperitoneal injection with 150 and 100 mg cyclophosphamide per kg of body weight for 4 d and 1 d before infection, respectively. Mice were inoculated with 100 μl of S. aureus ATCC25923 cells (1.0 × 10^7 CFU/ml) and given a single dose (0.2 ml) of Lfcin4 or Lfcin5 (10 or 15 mg/kg of body weight) or vancomycin (10 mg/kg of body weight) by tail vein injection at 2 h post-infection. Mice were humanely euthanized by cervical dislocation at 5 and 10 h after treatment. Thighs were removed and homogenized in sterile PBS for a CFU assay for S. aureus ATCC25923.

S. enteritidis CVCC3377 = assay type: cell-based, Salmonella enteritidis; conditions: CVCC3377, 18 h
Method: as §1

P. aeruginosa CICC21630 = assay type: cell-based, Pseudomonas aeruginosa; conditions: CICC21630, 18 h
Method: as §1

[4] = system: Bacillus subtilis ATCC6633; assay type: cell-based; conditions: ATCC6633, 18 h
Method: as §1

[5] = system: Salmonella typhimurium ATCC14028; assay type: cell-based; conditions: ATCC14028, 18 h
Method: as §1

S. pullorum CVCC1802 = assay type: cell-based; conditions: CVCC1802, 18 h
Method: as §1

[6] = system: Staphylococcus aureus ATCC43300; assay type: cell-based; conditions: ATCC43300, 18 h
Method: as §1

[7] = system: Pseudomonas aeruginosa CICC10419; assay type: cell-based; conditions: CICC10419, 18 h
Method: as §1

S. pullorum CVCC1789 = assay type: cell-based; conditions: CVCC1789, 18 h
Method: as §1

[8] = system: Streptococcus suis CVCC606; assay type: cell-based; conditions: 18 h
Method: as §1

Escherichia coli CVCC195 = assay type: cell-based; conditions: CVCC195, 18 h
Method: as §1

[9] = system: Enterococcus faecium CMCC1.2136; assay type: cell-based; conditions: CMCC1.2136, 18 h
Method: as §1

S. choleraesuis CVCC503 = assay type: cell-based; conditions: CVCC503, 18 h
Method: as §1

mouse erythrocytes = conditions: 256 μg/ml; cited from earlier work

Compound	survival rate (LPS from E. coli O111:B4) [%]	MIC (S. aureus ATCC25923 [1]) [µM]	MIC (E. coli CVCC1515) [µM]	MIC [2] [µM]	S. aureus cells killed (S. aureus ATCC25923 [3]; ATCC25923, mouse, in vivo, iv, 15 mg/kg, 10 h)	MIC (S. enteritidis CVCC3377) [µM]	MIC (P. aeruginosa CICC21630) [µM]	MIC [4] [µM]	MIC [5] [µM]	MIC (S. pullorum CVCC1802) [µM]	MIC [6] [µM]	MIC [7] [µM]	MIC (S. pullorum CVCC1789) [µM]	MIC [8] [µM]	MIC (Escherichia coli CVCC195) [µM]	MIC [9] [µM]	MIC (S. choleraesuis CVCC503) [µM]	hemolysis (mouse erythrocytes)	decrease of bacterial count in thigh (S. aureus ATCC25923 [3]; 10 mg/kg single i.v. dose (Fig. 6B), time not restated, sentence follows the 5 h result) [log10 CFU/g]	S. aureus cells killed (S. aureus ATCC25923 [3]; 10 h post-treatment, 10 mg/kg single i.v. dose) [%]
colistin [reference compound]	75	–	–	–	–	–	–	–	–	–	–	–	–	–	–	–	–	–	–	–
FKAFRWAWRWKKLAAPS [Lfcin5]	–	0.93	60	30	approximately 76.6%	1.9	>60	15	>30	>60	30	>60	>60	60	30	7.4	60	–	–	–
FKAFRWAWRMKKLAAPS [Lfcin3]	–	0.95	31	31	–	1.9	>61	15	61	>61	>61	>61	>61	61	31	15	61	–	–	–
CSCC[C@H](NC(=O)[C@H](CCCNC(=N)N)NC(=O)[C@H](Cc1c[nH]c2ccccc12)NC(=O)[C@H](CCC(N)=O)NC(=O)[C@H](Cc1c[nH]c2ccccc12)NC(=O)[C@H](CCCNC(=N)N)NC(=O)[C@H](CCCNC(=N)N)NC(=O)[C@H](CS)NC(=O)[C@H](CCCCN)NC(=O)[C@@H](N)Cc1ccccc1)C(=O)N[C@@H](CCCCN)C(=O)N[C@@H](CCCCN)C(=O)N[C@@H](CC(C)C)C(=O)NCC(=O)N[C@@H](C)C(=O)O [Lfcin1]	–	–	–	–	–	–	–	–	–	–	–	–	–	–	–	–	–	approximately 7.5%	–	–
CSCC[C@H](NC(=O)[C@H](CCCNC(=N)N)NC(=O)[C@H](Cc1c[nH]c2ccccc12)NC(=O)[C@H](CCC(N)=O)NC(=O)[C@H](Cc1c[nH]c2ccccc12)NC(=O)[C@H](CCCNC(=N)N)NC(=O)[C@H](CCCNC(=N)N)NC(=O)[C@H](CS)NC(=O)[C@H](CCCCN)NC(=O)[C@@H](N)Cc1ccccc1)C(=O)N[C@@H](CCCCN)C(=O)N[C@@H](CCCCN)C(=O)N[C@@H](CC(C)C)C(=O)NCC(=O)N[C@@H](C)C(=O)N1CCC[C@H]1C(=O)N[C@@H](CO)C(=O)O [Lfcin2]	–	0.92 (≈ 2 µg/mL)	>59	59 (≈ 129 µg/mL)	–	15 (≈ 32.7 µg/mL)	>59	29 (≈ 63.2 µg/mL)	29 (≈ 63.2 µg/mL)	>59	>59	>59	>59	>59	15 (≈ 32.7 µg/mL)	15 (≈ 32.7 µg/mL)	59 (≈ 129 µg/mL)	–	–	–
CN[C@H](CC(C)C)C(=O)N[C@H]1C(=O)N[C@@H](CC(N)=O)C(=O)N[C@H]2C(=O)N[C@H]3C(=O)N[C@H](C(=O)N[C@H](C(=O)O)c4cc(O)cc(O)c4-c4cc3ccc4O)[C@H](O)c3ccc(c(Cl)c3)Oc3cc2cc(c3O[C@@H]2O[C@H](CO)[C@@H](O)[C@H](O)[C@H]2O[C@H]2C[C@](C)(N)[C@H](O)[C@H](C)O2)Oc2ccc(cc2Cl)[C@H]1O [vancomycin, reference compound]	–	–	–	–	–	–	–	–	–	–	–	–	–	–	–	–	–	–	0.1	−1.2
FKCWRWQWRWKKLGAPS [Lfcin6]	–	7.1	57	57	–	7.1	>57	57	>57	>57	>57	>57	>57	>57	57	14	>57	–	–	–
